Source: PMC7144182, “Synthesis, biological evaluation and molecular modelling of 2,4-disubstituted-5-(6-alkylpyridin-2-yl)-1H-imidazoles as ALK5 inhibitors” (Journal of Enzyme Inhibition and Medicinal Chemistry, 2020)
Where “and” joins values, the source holds several entries; their conditions need not be identical. Equal entries are not always repeated. Marks after values point to notes of the source that are not given here.

How the values were obtained:
[1] = biological target: T1, purified human ALK5 kinase domain (Homo sapiens, UniProt P36897); assay: ALK5 kinase assay (33PanQinase, casein as substrate); format: biochemical; details: for IC50: casein substrate, 1 μM ATP, singlicate (11e: mean of triplicates); for fold less potent than the corresponding 6-methylpyridyl analogue / fold more inhibiting than the respective methylene linker analogue: vs 11a; for fold less potent than the corresponding 6-methylpyridyl analogue: 11e, 16a, 16e respectively; for fold more potent than the benzo[1,3]dioxol-5-yl analogue: 11a vs 7a, 16a vs 7b; for fold more inhibiting than the corresponding m-CONH2 analogues 16e and 16f: ethylene linker series; for fold more inhibiting than the respective methylene linker analogue: 11b, 11c, 11g respectively
T1 construct: using the purified human ALK5 kinase domain produced in Sf9 insect cells; host or cells: Sf9 insect cells
T1 sequence (P36897 205-495 limits assumed): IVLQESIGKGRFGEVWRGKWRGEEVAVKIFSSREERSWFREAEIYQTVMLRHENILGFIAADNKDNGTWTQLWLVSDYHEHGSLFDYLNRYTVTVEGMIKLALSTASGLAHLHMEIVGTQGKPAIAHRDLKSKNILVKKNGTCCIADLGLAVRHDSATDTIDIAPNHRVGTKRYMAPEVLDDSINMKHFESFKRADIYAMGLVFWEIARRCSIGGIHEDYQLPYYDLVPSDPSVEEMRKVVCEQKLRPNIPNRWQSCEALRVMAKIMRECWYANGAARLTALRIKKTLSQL
Protocol: To evaluate whether these potential inhibitors 7a–c, 11a–h, and 16a–h could inhibit ALK5, a kinase assay was performed using the purified human ALK5 kinase domain produced in Sf9 insect cells and casein as a substrate (Table 1).

Caco-2 cells = assay: Caco-2 cell permeability assay; format: in vitro ADME; details: 100 µM, AP to BL, 2 h; mean ± SD of quadruplicates
Protocol: Caco-2 cells were seeded in Transwell® polycarbonate filter at a density of 8 × 10^4 cells/filter and cultured for 21 days. Culture medium was removed from both apical (AP) and basolateral (BL) chambers of transwell, and the wells were rinsed three times with PBS. AP buffer (HBSS, pH 6.5) containing 10 mM MES and BL buffer (HBSS, pH 7.4) containing 10 mM HEPES were loaded in AP (500 µL) and BL (1500 µL) chambers, respectively, followed by incubation for 30 min at 37 °C. Then, test compound (100 µM) was added to the AP side and incubated for 2 h at 37 °C. After the incubation, BL buffer was collected and analysed using an UV spectrophotometer at a maximum wavelength (wavelength 225–357 nm).
To estimate oral absorption of target compounds, their permeability in a Caco-2 monolayer was evaluated at a concentration of 100 µM (Table 1).

[2] = system: TGF-β1-induced luciferase reporter activity, HaCaT (3TP-luc) stable cells; assay: Cell-based p3TP-luciferase reporter assay; details: for p3TP-luciferase activity (% control): 0.1 μM inhibitor, TGF-β1 2 ng/mL, 24 h, mean ± SD of three independent experiments; for % inhibition in luciferase reporter assay: 0.1 µM inhibitor
Protocol: To establish HaCaT (3TP-luc) stable cells, cells were seeded on six-well plates. Cells were allowed to adhere overnight and then transfected with the p3TP-luc (neo) expression plasmid using PEI reagent (Sigma Aldrich). Transfected cells were cultured for four weeks in the presence of G418 (500 µg/mL). Several single clones were isolated and measured luciferase activity. The clone showing response to TGF-β1 treatment was used for reporter assay. HaCaT (3TP-luc) stable cells were seeded at 2.5 × 10^4 cells/well in 96-well plate and were allowed to adhere overnight. Cells were concomitantly treated with TGF-β1 (2 ng/mL) and indicated concentrations of ALK5 inhibitors in 0.2% FBS medium and incubated for 24 h at 37 °C in 5% CO2. Cell lysates were prepared using Luciferase Assay System (Promega) according to the manufacturer’s instruction, and luminescence was measured by a luminometer, Micro Lumat Plus (Berthold, Germany).

SMILES | IC50 [1] [nM] | Caco-2 permeability (%) (Caco-2 cells) | p3TP-luciferase activity (% control) [2] [% control] | fold less potent than the corresponding 6-methylpyridyl analogue ([1]; kinase assay) | fold more potent than the benzo[1,3]dioxol-5-yl analogue ([1]; kinase assay) [fold] | fold more inhibiting than the corresponding m-CONH2 analogues 16e and 16f [1] [fold] | fold more inhibiting than the respective methylene linker analogue [1] [fold] | % inhibition in luciferase reporter assay [2] [% inhibition] | fold higher ALK5 inhibitory activity than 7a ([1]; kinase assay) [fold] | fold higher ALK5 inhibitory activity than 7c ([1]; kinase assay) [fold]
CCCCc1cccc(-c2[nH]c(CCc3ccc(C(N)=O)cc3)nc2-c2ccc3nccnc3c2)n1 [Compound 16d, 4-(2-(5-(6-n-Butylpyridin-2-yl)-4-(quinoxalin-6-yl)-1H-imidazol-2-yl)ethyl)benzamide] | 2380 | 24 ± 1.9% | 76 ± 5.7 |  |  |  |  |  |  | 
CCc1cccc(-c2[nH]c(Cc3ccc(C(N)=O)cc3)nc2-c2ccc3nccnc3c2)n1 [Compound 11b, 4-((5-(6-Ethylpyridin-2-yl)-4-(quinoxalin-6-yl)-1H-imidazol-2-yl)methyl)benzamide] | 112 | 26 ± 3.5% | 33 ± 21.3 | 1.3 fold |  |  |  |  |  | 
CC(C)c1cccc(-c2[nH]c(Cc3ccc(C(N)=O)cc3)nc2-c2ccc3nccnc3c2)n1 [Compound 11c, 4-((5-(6-Isopropylpyridin-2-yl)-4-(quinoxalin-6-yl)-1H-imidazol-2-yl)methyl)benzamide] | 2190 | 30 ± 9.0% | 39 ± 11.4 | 13–35 fold |  |  |  |  |  | 
Cc1cccc(-c2[nH]c(CCc3ccc(C(N)=O)cc3)nc2-c2ccc3nccnc3c2)n1 [Compound 16a, 4-(2-(5-(6-Methylpyridin-2-yl)-4-(quinoxalin-6-yl)-1H-imidazol-2-yl)ethyl)benzamide] | 30 | 45 ± 5.3% | 15 ± 8.2 |  | 3.1 | 1.6 | 2.9 | 85 |  | 
CCc1cccc(-c2[nH]c(CCc3ccc(C(N)=O)cc3)nc2-c2ccc3nccnc3c2)n1 [Compound 16b, 4-(2-(5-(6-Ethylpyridin-2-yl)-4-(quinoxalin-6-yl)-1H-imidazol-2-yl)ethyl)benzamide] | 41 | 25 ± 3.7% | 16 ± 8.4 | 1.4 fold |  | 1.6 | 2.7 | 84 |  | 
CCCCc1cccc(-c2[nH]c(Cc3ccc(C(N)=O)cc3)nc2-c2ccc3nccnc3c2)n1 [Compound 11d, 4-((5-(6-n-Butylpyridin-2-yl)-4-(quinoxalin-6-yl)-1H-imidazol-2-yl)methyl)benzamide] | 2700 | 41 ± 5.3% | 85 ± 32.5 |  |  |  |  |  |  | 
Cc1cccc(-c2[nH]c(CCc3cccc(C(N)=O)c3)nc2-c2ccc3nccnc3c2)n1 [Compound 16e, 3-(2-(5-(6-Methylpyridin-2-yl)-4-(quinoxalin-6-yl)-1H-imidazol-2-yl)ethyl)benzamide] | 47 | 21 ± 9.5% | 7 ± 0.7 |  |  |  |  | 93 |  | 
CC(C)c1cccc(-c2[nH]c(CCc3ccc(C(N)=O)cc3)nc2-c2ccc3nccnc3c2)n1 [Compound 16c, 4-(2-(5-(6-Isopropylpyridin-2-yl)-4-(quinoxalin-6-yl)-1H-imidazol-2-yl)ethyl)benzamide] | 653 | 23 ± 3.1% | 85 ± 38.9 | 13–35 fold |  |  | 3.4 |  |  | 
Cc1cccc(-c2[nH]c(CCCc3ccc(C(N)=O)cc3)nc2-c2ccc3c(c2)OCO3)n1 [Compound 7c, 4-(3-(4-(Benzo[d][1,3]dioxol-5-yl)-5-(6-methylpyridin-2-yl)-1H-imidazol-2-yl)propyl)benzamide] | 338 | 32 ± 1.1% | 60 ± 9.5 |  |  |  |  | 40 |  | 
CCCCc1cccc(-c2[nH]c(CCc3cccc(C(N)=O)c3)nc2-c2ccc3nccnc3c2)n1 [Compound 16h, 3-(2-(5-(6-n-Butylpyridin-2-yl)-4-(quinoxalin-6-yl)-1H-imidazol-2-yl)ethyl)benzamide] | 2880 | 0% | 92 ± 10.4 |  |  |  |  |  |  | 
CCc1cccc(-c2[nH]c(CCc3cccc(C(N)=O)c3)nc2-c2ccc3nccnc3c2)n1 [Compound 16f, 3-(2-(5-(6-Ethylpyridin-2-yl)-4-(quinoxalin-6-yl)-1H-imidazol-2-yl)ethyl)benzamide] | 66 | 6% and 6 ± 4.1% | 56 ± 14.6 | 1.4 fold |  |  |  |  |  | 
Cc1cccc(-c2[nH]c(Cc3ccc(C(N)=O)cc3)nc2-c2ccc3c(c2)OCO3)n1 [Compound 7a, 4-((4-(Benzo[d][1,3]dioxol-5-yl)-5-(6-methylpyridin-2-yl)-1H-imidazol-2-yl)methyl)benzamide] | 224 | 35 ± 0.7^f % | 28 ± 7.1 |  |  |  |  | 72 |  | 
Cc1cccc(-c2[nH]c(Cc3ccc(C(N)=O)cc3)nc2-c2ccc3nccnc3c2)n1 [Compound 11a, 4-((5-(6-Methylpyridin-2-yl)-4-(quinoxalin-6-yl)-1H-imidazol-2-yl)methyl)benzamide] | 88 | 25 ± 1.3% | 16 ± 4.5 |  | 2.5 |  |  | 84 |  | 
CC(C)c1cccc(-c2[nH]c(CCc3cccc(C(N)=O)c3)nc2-c2ccc3nccnc3c2)n1 [Compound 16g, 3-(2-(5-(6-Isopropylpyridin-2-yl)-4-(quinoxalin-6-yl)-1H-imidazol-2-yl)ethyl)benzamide] | 593 | 0% | 48 ± 41.8 | 13–35 fold |  |  | 2.1 |  |  | 
CCc1cccc(-c2[nH]c(Cc3cccc(C(N)=O)c3)nc2-c2ccc3nccnc3c2)n1 [Compound 11f, 3-((5-(6-Ethylpyridin-2-yl)-4-(quinoxalin-6-yl)-1H-imidazol-2-yl)methyl)benzamide] | 75 | 38 ± 13.8% | 17 ± 3.7 | 2.1 fold |  |  |  |  |  | 
Cc1cccc(-c2[nH]c(CCc3ccc(C(N)=O)cc3)nc2-c2ccc3c(c2)OCO3)n1 [Compound 7b, 4-(2-(4-(Benzo[d][1,3]dioxol-5-yl)-5-(6-methylpyridin-2-yl)-1H-imidazol-2-yl)ethyl)benzamide] | 93 | 23 ± 3.0% | 26 ± 7.9 |  |  |  |  | 74 | 2.4 | 3.6
CCCCc1cccc(-c2[nH]c(Cc3cccc(C(N)=O)c3)nc2-c2ccc3nccnc3c2)n1 [Compound 11h, 3-((5-(6-n-Butylpyridin-2-yl)-4-(quinoxalin-6-yl)-1H-imidazol-2-yl)methyl)benzamide] | 1040 |  | 83 ± 21.1 |  |  |  |  |  |  | 
